Assays:
[1] = target: T1, Prostaglandin G/H synthase 2 (Ovis aries, UniProt P79208); experiment: COX Inhibitor Screening Assay; settings: pH 8; 25 °C
T1 sequence (P79208 whole entry): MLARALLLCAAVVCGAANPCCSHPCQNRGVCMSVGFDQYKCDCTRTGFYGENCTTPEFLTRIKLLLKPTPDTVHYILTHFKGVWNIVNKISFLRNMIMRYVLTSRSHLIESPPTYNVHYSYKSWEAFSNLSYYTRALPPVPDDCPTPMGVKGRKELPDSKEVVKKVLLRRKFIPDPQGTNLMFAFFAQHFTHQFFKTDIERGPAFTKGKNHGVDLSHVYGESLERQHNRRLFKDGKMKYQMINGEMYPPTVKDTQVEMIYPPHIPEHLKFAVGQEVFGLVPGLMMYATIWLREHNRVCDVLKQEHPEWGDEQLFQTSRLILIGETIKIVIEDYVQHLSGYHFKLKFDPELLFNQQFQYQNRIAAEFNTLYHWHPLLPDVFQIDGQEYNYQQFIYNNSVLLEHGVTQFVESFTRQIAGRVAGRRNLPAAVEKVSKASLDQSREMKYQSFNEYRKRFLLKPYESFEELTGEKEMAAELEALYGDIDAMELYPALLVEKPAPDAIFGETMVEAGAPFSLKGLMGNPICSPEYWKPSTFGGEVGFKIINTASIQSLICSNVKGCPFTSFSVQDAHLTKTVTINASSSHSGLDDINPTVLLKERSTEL
Method: (§1) Dilute 3 mL of assay buffer concentrate with 27 mL of HPLC - grade water. This final assay buffer (0.1 M Tris-HCl, pH 8) should be used for dilution of heme and COX enzymes prior to assaying. This vial contains a solution of heme in dimethylsulphoxide. Dilute 88 μL of heme with 1.912 mL of diluted assay buffer prior to use. A vial contains a solution of ovine COX-1 and should be kept on ice when thawed. Dilute 200 μL of enzyme with 400 μL of diluted assay buffer and store on ice. A vial contains a solution of ovine COX-2 and should be kept on ice when thawed. Dilute 200 μL of enzyme with 400 μL of diluted assay buffer and store on ice. A vial contains a solution or arachidonic acid in ethanol. […] Use the prepared arachidonic acid solution within 30 min. A 20 μL aliquot will yield a final concentration of 100 μM in the wells. A vial contains 0.1 M potassium hydroxide (KOH). A vial contains a solution of TMPD. Background wells: add 160 μL of assay buffer, and 10 μL of heme to three wells. 100% Initial Activity wells: add 150 μL assay buffer, 10 μL of heme, and 10 μL of enzyme (either COX-1 or COX-2) to three wells. Inhibitor wells: add 150 μL of assay buffer, 10 μL of heme, and10 μL of enzyme (either COX-1 or COX-2) to three wells. Add 10 μL of inhibitor to the inhibitor wells and 10 μL of solvent (methanol, dimethylsulphoxide or ethanol) to the 100% Initial Activity wells and background wells, this process was repeated three times. Carefully shake the plate for a few seconds and incubate for five minutes at 25 °C. Add 20 μL of the colorimetric substratesolution to all the wells that you are using. Add 20 μL of arachidonic acid to all the wells you are using. Carefully shake the plate for few seconds and incubate for five minutes at 25 °C. Read the absorbance at 590 nm using a plate reader.

[2] = target: T2, Prostaglandin G/H synthase 1 (Ovis aries, UniProt P05979); experiment: COX Inhibitor Screening Assay; settings: pH 8; 25 °C
T2 sequence (P05979 whole entry): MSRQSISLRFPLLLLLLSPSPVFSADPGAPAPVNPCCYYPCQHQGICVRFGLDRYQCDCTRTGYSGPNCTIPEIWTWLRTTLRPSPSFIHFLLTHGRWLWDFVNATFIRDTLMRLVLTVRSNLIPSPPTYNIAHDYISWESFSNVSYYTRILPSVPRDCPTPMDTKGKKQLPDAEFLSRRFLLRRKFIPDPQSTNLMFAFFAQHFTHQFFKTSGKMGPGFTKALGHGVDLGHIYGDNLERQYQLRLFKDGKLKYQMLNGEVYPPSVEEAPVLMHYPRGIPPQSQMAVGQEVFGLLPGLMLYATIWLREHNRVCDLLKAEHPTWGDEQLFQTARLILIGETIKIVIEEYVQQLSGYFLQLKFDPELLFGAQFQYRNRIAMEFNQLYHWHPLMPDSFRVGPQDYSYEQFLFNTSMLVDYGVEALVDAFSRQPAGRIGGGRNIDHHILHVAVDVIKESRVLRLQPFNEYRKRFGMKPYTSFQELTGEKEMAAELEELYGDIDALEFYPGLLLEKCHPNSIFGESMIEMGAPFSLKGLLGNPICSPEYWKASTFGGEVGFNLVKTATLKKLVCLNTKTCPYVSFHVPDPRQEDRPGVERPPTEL
Method: as §1

SMILES | IC50 [1] [nM] | IC50 [2] [nM]
O=C1OC(c2cccnc2)=N/C1=C\c1cccnc1 [2-(pyridin-3-yl)-4-(pyridin-3-ylmethylene)oxazol-5(4H)-one (IIIg)] | 75 | 340
O=C1NN(c2ccccc2)C(c2cccnc2)=N/C1=C/c1cccnc1 [2-Phenyl-3-(pyridin-3-yl)-5-(pyridin-3-ylmethylene)-1,2-dihydro-1,2,4-triazin-6(5H)-one (IVg)] | 14 | 84
O=C1OC(c2cccnc2)=N/C1=C\c1ccccc1O [4-(2-Hydroxybenzylidene)-2-(pyridin-3-yl)oxazol-5(4H)-one (IIIf)] | 85 | 440
CN(C)c1ccc(/C=C2/N=C(c3cccnc3)OC2=O)cc1 [4-(4-(Dimethylamino)benzylidene)-2-(pyridin-3-yl)oxazol-5(4H)-one (IIIe)] | 19 | 80
O=C1OC(c2cccnc2)=N/C1=C/c1ccc(Cl)cc1 [4-(4-Chlorobenzylidene)-2-(pyridin-3-yl)oxazol-5(4H)-one (IIIb)] | 106 | 450
O=C1OC(c2cccnc2)=N/C1=C/c1ccc(O)cc1 [4-(4-Hydroxybenzylidene)-2-(pyridin-3-yl)oxazol-5(4H)-one (IIIc)] | 24 | 270
COc1ccc(/C=C2/N=C(c3cccnc3)OC2=O)cc1 [4-(4-Methoxybenzylidene)-2-(pyridin-3-yl)oxazol-5(4H)-one (IIId)] | 59 | 210
O=C1OC(c2cccnc2)=N/C1=C\c1ccccc1 [4-Benzylidene-2-(pyridin-3-yl) oxazol-5(4H)-one (IIIa)] | 77 | 440
O=C1NN(c2ccccc2)C(c2cccnc2)=N/C1=C/c1ccccc1O [5-(2-Hydroxybenzylidene)-2-phenyl-3-(pyridin-3-yl)-1,2-dihydro-1,2,4-triazin-6(5H)-one (IVf)] | 17 | 85
CN(C)c1ccc(/C=C2/N=C(c3cccnc3)N(c3ccccc3)NC2=O)cc1 [5-(4-(Dimethylamino)benzylidene)-2-phenyl-3-(pyridin-3-yl)-1,2-dihydro-1,2,4-triazin-6(5H)-one (IVe)] | 19 | 116
O=C1NN(c2ccccc2)C(c2cccnc2)=N/C1=C/c1ccc(Cl)cc1 [5-(4-Chlorobenzylidene)-2-phenyl-3-(pyridin-3-yl)-1,2-dihydro-1,2,4-triazin-6(5H)-one (IVb)] | 34 | 160
O=C1NN(c2ccccc2)C(c2cccnc2)=N/C1=C/c1ccc(O)cc1 [5-(4-Hydroxybenzylidene)-2-phenyl-3-(pyridin-3-yl)-1,2-dihydro-1,2,4-triazin-6(5H)-one (IVc)] | 19 | 96
COc1ccc(/C=C2/N=C(c3cccnc3)N(c3ccccc3)NC2=O)cc1 [5-(4-Methoxybenzylidene)-2-phenyl-3-(pyridin-3-yl)-1,2-dihydro-1,2,4-triazin-6(5H)-one (IVd)] |  | 108
O=C1NN(c2ccccc2)C(c2cccnc2)=N/C1=C/c1ccccc1 [5-Benzylidene-2-phenyl-3-(pyridin-3-yl)-1,2-dihydro-1,2,4-triazin-6(5H)-one (IVa)] | 35 | 150

Source: BindingDB's records for doi:10.1016/j.bioorg.2017.04.012 (Cairo University, 2017)
